What all share (type): in vivo
Test [1] concerns macrophages having infiltrated the inflammatory sites of Langerhans islets. The test can be described thus: Uptake of conventional PDT photosensitizers into macrophages in the pancreas of a mammal with IDDM. To be noted: no test described.
The test system of test [2] is macrophages having infiltrated the islets of Langerhans. Briefly: Test Example 1: fluorescence localisation in frozen pancreatic sections after i.v. administration to BB rats with onset of IDDM. As to conditions: 5 mg/kg via tail vein, pancreas excised 1 hour after administration, 664 nm laser (same result with 405 nm UV / 672 nm fluorescence). From the text:
From 60 days after birth, the BB rats were examined every day for the urine sugar level and blood sugar level by using GLUTEST SENSOR (Sanwa Kagaku Co., Ltd., Japan). […] The excised pancreases were frozen in dry ice/acetone, to prepare frozen pancreatic sections of 5 μm in thickness. The frozen pancreatic sections were irradiated with a semiconductor laser light of 664 nm (Matsushita Industrial Equipment Co., Ltd., Japan). An image of fluorescence as emitted by mono-L-aspartyl chlorin e6 in the frozen pancreatic section was observed under a fluorescence microscope equipped with a notched filter for cutting 664 nm wavelength (made by Carl Zeiss). […]
Further, the places of the pancreas section which indicated the previously observed fluorescence of mono-L-aspartyl chlorin e6 were confirmed to be consistent with the sites where the macrophages were present in the pancreas sections. […] When a method comprising irradiation of a UV ray of a wavelength of 405 nm and observing a fluorescence at 672 nm with a cut filter for cutting light rays of wavelengths of not more than 600 nm was used for the observation of the fluorescence of mono-L-aspartyl chlorin e6, there could again be obtained the same result as that obtained in the above-described method comprising irradiation of the 664-nm semiconductor laser.

For test [3], the system named is BB rats with onset of IDDM. Briefly: Test Example 3: photodynamic therapy of IDDM in BB rats (664-nm laser light), survival rate. Here is the method: From 60 days after birth, BB rats (16 rats per group) were examined every day for the urine sugar level and blood sugar level, to confirm the time of the onset of IDDM. […] Photodynamic therapy of IDDM was thus conducted once, and thereafter, the survival rate (%) of the BB rats were evaluated during the breeding for subsequent […].
On the other hand, the survival rate (%) of the control group of rats (untreated) was about 65% on Day 6 after the start of the test, and all rats had died on Day 22 after the start of the test.
The survival rate (%) of rats under test was evaluated by the following equation: [formula]

The mark [4] stands for this setting: BB rats treated by the photodynamic therapy.

The text below walks through data of patent publication US20030157026A1, “Photodynamic diagnosis and therapy for insulin-dependent diabetes mellitus” (priority 2001, published 2003).

Regarding `CCOC(=O)C1=Cc2c3nc(cc4nc(cc5[n-]c(cc6[n-]c2c(C)c6CC)c(C)c5CC)C(C)=C4CC)[C@@H](C)[C@]13CC.[Cl-].[Cl-].[Sn]` (racemic) [rostaporfin], in test [1], the “uptake into macrophages when each singly administered” value (shortened to “uptake into macrophages”) was “selectively be uptaken by and into the macrophages”.

On to `C=CC1=C(C)C2=CC3=C(/C=C/NO)C(C)(O)C(=CC4=NC(=CC5=NC(=CC1=N2)C(C)=C5CCC(=O)N[C@@H](CC(=O)[O-])C(=O)[O-])C(CCC(=O)N[C@@H](CC(=O)[O-])C(=O)[O-])=C4C)N3.[Na+].[Na+].[Na+].[Na+]` (stereo partly drawn) [ATX-S10], for which, in test [1], the “uptake into macrophages” value is “selectively be uptaken by and into the macrophages”. The same measure, in the same setting: with `C=Cc1c(C)c2cc3nc(c(CC(=O)O)c4[nH]c(cc5nc(cc1[nH]2)C(C)=C5CC)c(C)c4C(=O)O)[C@@H](CCC(=O)O)[C@@H]3C` [chlorin e6] the entry was “selectively be uptaken by and into the macrophages”. For the compound `C=Cc1c(C)c2cc3nc(c(CC(=O)N[C@@H](CC(=O)[O-])C(=O)[O-])c4[nH]c(cc5nc(cc1[nH]2)C(C)=C5CC)c(C)c4C(=O)[O-])[C@@H](CCC(=O)[O-])[C@@H]3C.[Na+].[Na+].[Na+].[Na+]` [mono-L-aspartyl chlorin e6], the “uptake and accumulation of the administered photosensitizer (fluorescence image vs macrophage antibody staining)” value in test [2] was “uptaken into and accumulated specifically in the macrophages having infiltrated the islets of Langerhans”. In test [3] (setting [4]), the “blood sugar level compared with control group” value is listed as “blood sugar level had changed at slightly lower stages” and the “progress of Langerhans islet inflammation (pancreatic insulitis)” value was “pancreatic insulitis was suppressed by the PDT”. The insulin production entry in test [3] (BB rats treated by the photodynamic therapy vs control) is reported as “tendency to delay the disappearance of insulin production”.

As to `CC(=O)[O-].CC(=O)[O-].CCc1c(CC)c2cc3nc(cnc4cc(OCCOCCOCCOC)c(OCCOCCOCCOC)cc4ncc4nc(cc1[n-]2)C(CCCO)=C4C)C(C)=C3CCCO.O.[Lu+3]` [motexafin lutetium], in test [1], the “uptake into macrophages” value was “selectively be uptaken by and into the macrophages”. With porfimer sodium, the “uptake into macrophages” value in test [1] was “selectively be uptaken by and into the macrophages”. As for “tetrasodium salt of mono-L-aspartyl chlorin e6”, the long-term survivors entry in test [3] (BB rats, 5 mg/kg i.v. plus 664-nm laser, all control rats had died on Day 22) is “several rats surviving still after Day 35”. In addition, the “survival curve compared with untreated control group” value in test [3] (BB rats, 5 mg/kg i.v., 24 h later 664-nm laser 50 J/cm^2, once) is listed as “evident prolongation of their survival curve”. In test [3] (BB rats, 5 mg/kg i.v., 24 h later 664-nm laser 50 J/cm^2 transcutaneously, once, untreated control about 65%), the “survival rate (%) on Day 6 after the start of the therapy” value is given as 100%.
